# From PubChem BioAssay (NCI)
#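 Tested at 5 concentrations; 48 h exposure; 96-well plates; endpoints linearly interpolated, else capped at highest concentration. Abbreviation: GI50, concentration required for 50% inhibition of growth. TGI: total growth inhibition.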
# How the values were obtained:
# Experiment in all cases: NCI-60 cell line screen, 48 h
# [1] = system: 786-0 renal
# [2] = system: A498 renal
# [3] = system: A549 NSCLC
# [4] = system: ACHN renal
# [5] = system: CAKI-1 renal
# [6] = system: CCRF-CEM leukemia
# [7] = system: COLO 205 colon
# [8] = system: DLD-1 colon
# [9] = system: DMS 273 small cell lung
# [10] = system: HCC-2998 colon
# [11] = system: HCT-116 colon
# [12] = system: HCT-15 colon
# [13] = system: HL-60(TB) leukemia
# [14] = system: HOP-18 NSCLC
# [15] = system: HOP-62 NSCLC
# [16] = system: HOP-92 NSCLC
# [17] = system: HT29 colon
# [18] = system: IGROV1 ovarian
# [19] = system: K-562 leukemia
# [20] = system: KM12 colon
# [21] = system: KM20L2 colon
# [22] = system: LOX IMVI melanoma
# [23] = system: LXFL 529 NSCLC
# [24] = system: M14 melanoma
# [25] = system: M19-MEL melanoma
# [26] = system: MALME-3M melanoma
# [27] = system: MOLT-4 leukemia
# [28] = system: NCI-H226 lung
# [29] = system: NCI-H23 lung
# [30] = system: NCI-H460 lung
# [31] = system: NCI-H522 lung
# [32] = system: OVCAR-3 ovarian
# [33] = system: OVCAR-4 ovarian
# [34] = system: OVCAR-8 ovarian
# [35] = system: RPMI-8226 leukemia
# [36] = system: RXF 393 renal
# [37] = system: SF-268 CNS
# [38] = system: SF-295 CNS
# [39] = system: SF-539 CNS
# [40] = system: SK-MEL-2 melanoma
# [41] = system: SK-MEL-28 melanoma
# [42] = system: SK-MEL-5 melanoma
# [43] = system: SK-OV-3 ovarian
# [44] = system: SN12C renal
# [45] = system: SNB-19 CNS
# [46] = system: SNB-75 CNS
# [47] = system: SNB-78 CNS
# [48] = system: SW-620 colon
# [49] = system: TK-10 renal
# [50] = system: U251 CNS
# [51] = system: UACC-257 melanoma
# [52] = system: UACC-62 melanoma
# [53] = system: UO-31 renal
# [54] = system: XF 498 CNS
# [55] = system: EKVX NSCLC
# [56] = system: OVCAR-5 ovarian
compound,measurement,setting,value
N[C@@H]1CCCC[C@@H]1N.O=P([O-])([O-])CNCP(=O)([O-])[O-].[Pt+2],GI50,[1],> 100 µM
same,TGI,[1],> 100 µM
same,GI50,[2],> 100 µM
same,TGI,[2],> 100 µM
same,GI50,[3],> 100 µM
same,TGI,[3],> 100 µM
same,GI50,[4],> 100 µM
same,TGI,[4],> 100 µM
same,GI50,[5],> 100 µM
same,TGI,[5],> 100 µM
same,GI50,[6],> 100 µM
same,TGI,[6],> 100 µM
same,GI50,[7],> 100 µM
same,TGI,[7],> 100 µM
same,GI50,[8],> 100 µM
same,TGI,[8],> 100 µM
same,GI50,[9],> 100 µM
same,TGI,[9],> 100 µM
same,GI50,[10],> 100 µM
same,TGI,[10],> 100 µM
same,GI50,[11],> 100 µM
same,TGI,[11],> 100 µM
same,GI50,[12],> 100 µM
same,TGI,[12],> 100 µM
same,GI50,[13],> 100 µM
same,TGI,[13],> 100 µM
same,GI50,[14],> 100 µM
same,TGI,[14],> 100 µM
same,GI50,[15],> 100 µM
same,TGI,[15],> 100 µM
same,GI50,[16],> 100 µM
same,TGI,[16],> 100 µM
same,GI50,[17],> 100 µM
same,TGI,[17],> 100 µM
same,GI50,[18],> 100 µM
same,TGI,[18],> 100 µM
same,GI50,[19],> 100 µM
same,TGI,[19],> 100 µM
same,GI50,[20],> 100 µM
same,TGI,[20],> 100 µM
same,GI50,[21],> 100 µM
same,TGI,[21],> 100 µM
same,GI50,[22],> 100 µM
same,TGI,[22],> 100 µM
same,GI50,[23],> 100 µM
same,TGI,[23],> 100 µM
same,GI50,[24],> 100 µM
same,TGI,[24],> 100 µM
same,GI50,[25],> 100 µM
same,TGI,[25],> 100 µM
same,GI50,[26],> 100 µM
same,TGI,[26],> 100 µM
same,GI50,[27],> 100 µM
same,TGI,[27],> 100 µM
same,GI50,[28],> 100 µM
same,TGI,[28],> 100 µM
same,GI50,[29],> 100 µM
same,TGI,[29],> 100 µM
same,GI50,[30],> 100 µM
same,TGI,[30],> 100 µM
same,GI50,[31],> 100 µM
same,TGI,[31],> 100 µM
same,GI50,[32],> 100 µM
same,TGI,[32],> 100 µM
same,GI50,[33],> 100 µM
same,TGI,[33],> 100 µM
same,GI50,[34],> 100 µM
same,TGI,[34],> 100 µM
same,GI50,[35],> 100 µM
same,TGI,[35],> 100 µM
same,GI50,[36],> 100 µM
same,TGI,[36],> 100 µM
same,GI50,[37],> 100 µM
same,TGI,[37],> 100 µM
same,GI50,[38],> 100 µM
same,TGI,[38],> 100 µM
same,GI50,[39],> 100 µM
same,TGI,[39],> 100 µM
same,GI50,[40],> 100 µM
same,TGI,[40],> 100 µM
same,GI50,[41],> 100 µM
same,TGI,[41],> 100 µM
same,GI50,[42],> 100 µM
same,TGI,[42],> 100 µM
same,GI50,[43],> 100 µM
same,TGI,[43],> 100 µM
same,GI50,[44],> 100 µM
same,TGI,[44],> 100 µM
same,GI50,[45],> 100 µM
same,TGI,[45],> 100 µM
same,GI50,[46],> 100 µM
same,TGI,[46],> 100 µM
same,GI50,[47],> 100 µM
same,TGI,[47],> 100 µM
same,GI50,[48],> 100 µM
same,TGI,[48],> 100 µM
same,GI50,[49],> 100 µM
same,TGI,[49],> 100 µM
same,GI50,[50],> 100 µM
same,TGI,[50],> 100 µM
same,GI50,[51],> 100 µM
same,TGI,[51],> 100 µM
same,GI50,[52],> 100 µM
same,TGI,[52],> 100 µM
same,GI50,[53],> 100 µM
same,TGI,[53],> 100 µM
same,GI50,[54],> 100 µM
same,TGI,[54],> 100 µM
COc1ccc2ccnc(Cc3ccc(OCc4ccccc4)c(OC)c3)c2c1,TGI,[1],44.5 µM
same,TGI,[2],54.5 µM
same,TGI,[3],79.5 µM
same,TGI,[4],76.3 µM
same,TGI,[5],> 100 µM
same,TGI,[6],83.6 µM
same,TGI,[8],> 100 µM
same,TGI,[55],42.7 µM
same,TGI,[10],38.4 µM
same,TGI,[11],29.7 µM
same,TGI,[12],44.9 µM
same,TGI,[14],62.5 µM
same,TGI,[15],35.3 µM
same,TGI,[17],> 100 µM
same,TGI,[19],> 100 µM
same,TGI,[20],37.1 µM
same,TGI,[21],> 100 µM
same,TGI,[23],80.6 µM
same,TGI,[24],33.2 µM
same,TGI,[26],33.9 µM
same,TGI,[27],46.6 µM
same,TGI,[29],53 µM
same,TGI,[30],37.8 µM
same,TGI,[31],72.7 µM
same,TGI,[32],34.2 µM
same,TGI,[33],34 µM
same,TGI,[56],> 100 µM
same,TGI,[34],43.5 µM
same,TGI,[35],65.3 µM
same,TGI,[37],70.3 µM
same,TGI,[38],68.1 µM
same,TGI,[39],32.3 µM
same,TGI,[40],39.7 µM
same,TGI,[41],33.4 µM
same,TGI,[42],29.9 µM
same,TGI,[44],29.8 µM
same,TGI,[45],> 100 µM
same,TGI,[46],76.7 µM
same,TGI,[47],67.6 µM
same,TGI,[48],> 100 µM
same,TGI,[49],93.2 µM
same,TGI,[50],44.6 µM
same,TGI,[51],44.7 µM
same,TGI,[53],19.8 µM
same,TGI,[54],31.2 µM
